Source: US20210323918A1, “COMPOSITIONS AND METHODS FOR SUPPRESSING AND/OR TREATING A GROWTH RELATED DISEASE AND/OR A CLINICAL CONDITION THEREOF” (CK Biotech Inc., priority 2018, published 2021)
Read-outs that look alike come from different tables or passages of the source.

Target: T1, CXXC5-DVL interaction (Homo sapiens, UniProt O14640)
T1 construct: 5 mg/ml purified DVL PDZ domain was incubated in each well
T1 sequence (O14640 251-323 limits assumed): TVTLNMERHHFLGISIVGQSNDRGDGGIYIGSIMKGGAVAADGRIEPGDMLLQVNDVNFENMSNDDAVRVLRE
Assay: In vitro CXXC5-DVL binding assay (FITC-tagged PTD-DBMP on DVL PDZ domain)
Conditions: read-out: CXXC5-DVL interaction (%)
Method: Screening for compounds that inhibit the CXXC5-DVL interaction. […] Briefly, 5 mg/ml purified DVL PDZ domain was incubated in each well of a 96-well Maxibinding Immunoplate (SPL) at 4° C. for 16 hours. After the addition of 10 μM FITC-tagged PTD-DBMP to each well, each compound in the chemical library or control (DMSO) was treated to the well at a final concentration of 30 μM. The fluorescence intensity was measured using a Fluorstar Optima microplate reader (BGM Lab Technologies, Ortenberg, Germany). The binding values were calculated as a percent ratio of the fluorescent intensity normalized to the DMSO-treated control.

[1] = compound 30 μM, fluorescent intensity normalized to DMSO-treated control

Compound	remaining activity at 30 µM [1]	remaining activity at 30 µM
COc1ccc(C)cc1/N=N/c1ccc(O)c2nc(/C=N/O)ccc12 [Compound 1]	7.62%	
COc1ccc(C2CC(C(F)(F)F)n3ncc(C(=O)O)c3N2)cc1OC (centres unmarked) [Compound 2]	1.01%	
Cc1cc(C)c2c(O)nc(SCC(=O)c3ccc(O)c(O)c3)nc2n1 [Compound 3]	4.01%	
COC(=O)C1=C(C)N/C(=C/c2cc(C)n(-c3ccccc3F)c2C)C1=O [Compound 4]	4.76%	
O=C(O)C1Sc2[nH]c(=O)sc2C2c3cc(Br)cc(Br)c3OC(=O)C12 (centres unmarked) [Compound 5]	1.19%	
CCN(CC)S(=O)(=O)c1ccc(OC)c(Nc2cc(-c3ccccc3)nc(C)n2)c1 [Compound 6]	7.63%	
COc1ccc(C2CC(=O)C3=C(C2)Nc2onc(C)c2C3c2ccc(O)c(O)c2)cc1OC (centres unmarked) [Compound 7]	0.72%	
CN1CCc2cc(O)cc3c2[C@H]1Cc1ccc(O)c(O)c1-3 [Compound 9]	2.5%	
NC(Cc1cc(O)c(O)cc1O)C(=O)O (centres unmarked) [Compound 10]		1.39%
O=c1cc(O)cc(/C=C/c2ccc(O)c(O)c2)o1 [Compound 11]	1.73%	
O=C1Nc2ccccc2/C1=C1/Nc2ccccc2/C1=N\O [Compound 12, indirubin-3′-oxime, reference compound]	7.65%	
O=c1c(O)c(-c2cc(O)c(O)c(O)c2)oc2cc(O)cc(O)c12 [Compound 13]	7.66%	
CC(N)(Cc1ccc(O)c(O)c1)C(=O)O (centres unmarked) [Compound 14]	7.65%	
O=c1c(O)c(-c2ccc(O)cc2O)oc2cc(O)cc(O)c12 [Compound 15]	7.43%	
CN(C)c1ccc(O)c2c1C[C@H]1C[C@H]3[C@H](N(C)C)C(O)=C(C(N)=O)C(=O)[C@@]3(O)C(O)=C1C2=O [Compound 16]		4.37%
Oc1cc(O)cc(/C=C/c2ccc(O)c(O)c2)c1 [Compound 17]	7.61%	
O=C(OCCN1CCOCC1)C1(c2ccccc2)CCCCC1 [Compound 18]	5.7%	
